Results as given in PubChem BioAssay (NCI).
Several values for one entry are separate records, joined by “and”; a condition that tells them apart may be missing. Equal values may be shown once.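 Cultured in 96-well plates, cells were exposed to test compound for 48 hours across five concentrations. GI50 marks 50% less growth. The concentration for full growth arrest is given as TGI.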

Columns and labels:
Assay in all cases: DTP human tumour cell line panel, 48 h
[1] = test system: CCRF-CEM leukemia
[2] = test system: SK-MEL-5 melanoma
[3] = test system: HOP-92 NSCLC
[4] = test system: NCI-H460 lung
[5] = test system: OVCAR-3 ovarian
[6] = test system: NCI-H23 lung
[7] = test system: RPMI-8226 leukemia
[8] = test system: EKVX NSCLC
[9] = test system: K-562 leukemia
[10] = test system: OVCAR-5 ovarian

CCCCCCCCCCCCCC[n+]1ccc(C)cc1
GI50 [1]: 0.818 µM | TGI [1]: 5.11 µM | GI50 [2]: 0.548 µM | TGI [2]: 1.81 µM | GI50 [3]: 0.577 µM | TGI [3]: 3.3 µM | GI50 [4]: 0.994 µM | TGI [4]: 2.23 µM | GI50 [5]: 0.351 µM | TGI [5]: 1.28 µM | GI50 [6]: 0.504 µM | TGI [6]: 2.51 µM | GI50 [7]: 0.426 µM | TGI [7]: 2.37 µM | GI50 [8]: 0.296 µM | TGI [8]: 1.42 µM | GI50 [9]: 0.309 µM | TGI [9]: 3.73 µM | GI50 [10]: 1.14 µM | TGI [10]: 5.18 µM

O=C(O)/C=C/c1c[nH]c(=O)[nH]c1=O
TGI [1]: > 316 µM | TGI [2]: > 500 µM | GI50 [3]: > 500 µM and 76.3 µM | TGI [3]: > 500 µM | TGI [4]: > 500 µM | TGI [5]: > 500 µM | TGI [6]: > 500 µM | TGI [7]: > 500 µM | TGI [8]: > 500 µM | TGI [9]: > 500 µM | GI50 [10]: > 500 µM | TGI [10]: > 500 µM

COc1ccc(-c2c(-c3ccccc3)c(C)nc3nc(SC)nc(SC)c23)cc1OC
TGI [1]: 23.5 µM | TGI [2]: 27.8 µM | TGI [3]: 48.2 µM | TGI [4]: 16.2 µM | TGI [5]: > 100 µM | TGI [6]: > 100 µM | TGI [7]: 26.1 µM | TGI [8]: > 100 µM | TGI [9]: 32 µM | TGI [10]: > 100 µM

CC12CCC(CC1)C(C)(C)O2
GI50 [1]: 35.8 µM | TGI [1]: 201 µM | TGI [2]: 21.8 µM | TGI [3]: 95.2 µM | GI50 [4]: 1.24 µM | TGI [4]: 12.3 µM | TGI [5]: 84.8 µM | TGI [6]: 121 µM | TGI [7]: 173 µM | TGI [8]: 104 µM | GI50 [9]: 37.9 µM | TGI [9]: 183 µM | TGI [10]: 116 µM

CC(C)c1ccccc1SCc1cc(=O)cc(CSc2ccccc2C(C)C)o1
TGI [1]: 95.6 µM | TGI [2]: > 100 µM | TGI [3]: 36.7 µM | TGI [4]: 69.7 µM | TGI [5]: 39.2 µM | TGI [6]: > 100 µM | TGI [7]: > 100 µM | TGI [8]: 38.4 µM | TGI [9]: > 100 µM | TGI [10]: 34.7 µM

Cc1cccc(N2C(=O)C3c4[nH]c5ccc(C)cc5c4C4CCC(C(C)(C)C)CC4C3C2=O)c1 (stereo not drawn)
TGI [1]: 68 µM | TGI [2]: > 100 µM | TGI [3]: 57.6 µM | TGI [4]: 36.3 µM | TGI [5]: 28.9 µM | TGI [6]: > 100 µM | TGI [7]: 41.1 µM | TGI [8]: 85.6 µM | TGI [9]: > 100 µM | TGI [10]: > 100 µM

CSc1nc(N)c2c(-c3ccccc3)c3c(nc2n1)CCCC3
TGI [1]: > 100 µM | TGI [2]: > 100 µM | TGI [4]: > 100 µM | TGI [5]: > 100 µM | TGI [6]: > 100 µM | TGI [7]: > 100 µM | TGI [8]: > 100 µM | TGI [9]: > 100 µM | TGI [10]: > 100 µM

C=C1C(=O)OC2CC(C)C3C4OC4C(O)C3(C)C(O)C12 (stereo not drawn)
TGI [1]: 56 µM | TGI [2]: 87.1 µM | TGI [3]: 61.9 µM | TGI [4]: 62.9 µM | TGI [5]: 69.3 µM | TGI [6]: 55.5 µM | TGI [7]: 51.1 µM | TGI [8]: 63.9 µM | TGI [9]: 91.6 µM | TGI [10]: 108 µM

C=C=CC(NC(=O)c1ccccc1)(C(=O)O)C(F)(F)F (stereo not drawn)
TGI [1]: > 100 µM | TGI [2]: > 100 µM | TGI [3]: > 100 µM | TGI [4]: > 100 µM | TGI [6]: > 100 µM | TGI [7]: > 100 µM | TGI [8]: > 100 µM | TGI [9]: > 100 µM | TGI [10]: > 100 µM

C/C(N=NS(=O)(=O)c1ccc([N+](=O)[O-])cc1)=C1\C=CC=CN1O
TGI [1]: > 100 µM | TGI [2]: > 100 µM | TGI [3]: > 100 µM | TGI [4]: > 100 µM | TGI [5]: > 100 µM | TGI [6]: > 100 µM | TGI [7]: > 100 µM | TGI [8]: > 100 µM | TGI [9]: > 100 µM | TGI [10]: > 100 µM

CCCCOP(C)(=O)C(NC(=O)OCC)(C(F)(F)F)C(F)(F)F (stereo not drawn)
TGI [1]: > 100 µM | TGI [2]: > 100 µM | TGI [3]: > 100 µM | TGI [4]: > 100 µM | TGI [5]: > 100 µM | TGI [6]: > 100 µM | TGI [7]: > 100 µM | TGI [8]: > 100 µM | TGI [9]: > 100 µM | TGI [10]: > 100 µM

O=C1/C(=C/c2ccc(O)cc2)COc2ccc(O)c(O)c21
GI50 [1]: 0.652 µM | TGI [1]: 8.53 µM | GI50 [2]: 1.81 µM | TGI [2]: 4.01 µM | GI50 [3]: 2.33 µM | TGI [3]: 7.25 µM | GI50 [4]: 2.16 µM | TGI [4]: 4.69 µM | GI50 [5]: 2.05 µM | TGI [5]: 5.79 µM | GI50 [6]: 3.97 µM | TGI [6]: 34.7 µM | GI50 [7]: 0.499 µM | TGI [7]: 3.68 µM | GI50 [8]: 2.91 µM | TGI [8]: > 100 µM | GI50 [9]: 0.649 µM | TGI [9]: > 100 µM | GI50 [10]: 2.64 µM | TGI [10]: 7.26 µM

O=C(SCc1cccc2ccccc12)c1ccc(Cl)cc1
TGI [1]: > 100 µM | TGI [2]: > 100 µM | TGI [3]: > 100 µM | TGI [4]: > 100 µM | TGI [5]: > 100 µM | TGI [6]: > 100 µM | TGI [7]: > 100 µM | TGI [8]: > 100 µM | TGI [9]: > 100 µM | TGI [10]: > 100 µM
